Results as given in patent publication US9884863B2, “STAT3 inhibitor” (Board of Regents, The University of Texas System, priority 2013, dated 2018).
Read-outs that look alike come from different tables or passages of the source.

Columns and labels:
MCF-7 = assay: MTS cell proliferation assay, MCF-7; type: cell-based, human; details: for IC50: Homo sapiens; for inhibition on breast cancer cell proliferation (FIG. 1): MCF-7, 48 hr, μM concentrations
Method: Cancer cells (breast cancer cell lines MCF-7, MDA-MB-361, SKBR3 and MDA-MB-231, pancreatic cancer cell lines AsPC-1. […] Proliferation was measured by treating cells with the 3-(4,5-dimethylthiazol-2-yl)-5-(3-carboxymethoxyphenyl)-2-(4-sulfophenyl)-2H-tetrazolium) (MTS) in a CellTiter 96t AQueous Non-Radioactive Cell Proliferation Assay kit from Promega, Madison, Wis., USA). Absorbance of all wells was determined by measuring OD at 550 nm after 1 hr incubation at 37° C. on a 96-well iMark™ Microplate Absorbance Reader (BioRad, Hercules, Calif.). Each individual compound was tested in quadruplicate wells for each concentration, and the results were reported as mean absorption±s.e.
In Vitro Determination of Effects of Synthesized Compounds on Cancer Cell Proliferation. Cancer cells (breast cancer cell lines MCF-7 and MDA-MB-231, pancreatic cancer cell lines AsPC-1 and Panc-1) were […], 0.01, 0.1, 1, 5, 10, […] Proliferation was measured by treating cells with the 3-(4,5-dimethylthiazol-2-yl)-5-(3-carboxymethoxyphenyl)-2-(4-sulfophenyl)-2H-tetrazolium) (MTS) in a CellTiter 96t Aqueous Non-Radioactive Cell Proliferation Assay kit (Promega, Madison, Wis., USA). Absorbance of all wells was determined by measuring OD at 550 nm after 1 h incubation at 37° C. on a 96-well iMark™ Microplate Absorbance Reader (BioRad, Hercules, Calif.). Each individual compound was tested in quadruplicate wells for each concentration.

AsPC1 = assay: MTS cell proliferation assay, AsPC1; type: cell-based, human; details: Homo sapiens, ASPC1
Method: (§1) Cancer cells (breast cancer cell lines MCF-7, MDA-MB-361, SKBR3 and MDA-MB-231, pancreatic cancer cell lines AsPC-1. BxPC3 and Panc-1) were seeded in 96-well plates at a density of 1000-2000 cells/well and treated with DMSO, 0.01, 0.1, 1, 5, 10, and […] of STAT3 individual inhibitors for 72 hrs. Proliferation was measured by treating cells with the 3-(4,5-dimethylthiazol-2-yl)-5-(3-carboxymethoxyphenyl)-2-(4-sulfophenyl)-2H-tetrazolium) (MTS) in a CellTiter 96t AQueous Non-Radioactive Cell Proliferation Assay kit from Promega, Madison, Wis., USA). Absorbance of all wells was determined by measuring OD at 550 nm after 1 hr incubation at 37° C. on a 96-well iMark™ Microplate Absorbance Reader (BioRad, Hercules, Calif.). Each individual compound was tested in quadruplicate wells for each concentration, and the results were reported as mean absorption±s.e.
(§2) In Vitro Determination of Effects of Synthesized Compounds on Cancer Cell Proliferation. Cancer cells (breast cancer cell lines MCF-7 and MDA-MB-231, pancreatic cancer cell lines AsPC-1 and Panc-1) were seeded in 96-well plates at a density of 2×10^3 cells/well and treated with DMSO, 0.01, 0.1, 1, 5, 10, and 100 μM of individual STAT3 inhibitors for 72 h. Proliferation was measured by treating cells with the 3-(4,5-dimethylthiazol-2-yl)-5-(3-carboxymethoxyphenyl)-2-(4-sulfophenyl)-2H-tetrazolium) (MTS) in a CellTiter 96t Aqueous Non-Radioactive Cell Proliferation Assay kit (Promega, Madison, Wis., USA). Absorbance of all wells was determined by measuring OD at 550 nm after 1 h incubation at 37° C. on a 96-well iMark™ Microplate Absorbance Reader (BioRad, Hercules, Calif.). Each individual compound was tested in quadruplicate wells for each concentration.

Panc-1 = assay: MTS cell proliferation assay, Panc-1; type: cell-based, human; details: Homo sapiens, PANC-1
Method: as §1, §2

MDA-MB-231 = assay: MTS cell proliferation assay, MDA-MB-231; type: cell-based, human; details: Homo sapiens, MDA-MB-231, >10 = no effect
Method: as §1, with “Calif.).” for “Calif.). Each individual compound was tested in quadruplicate wells for each concentration, and the results were reported as mean absorption±s.e.”
as §2, with “concentration. […]” for “concentration.”

MDA-MB-361 = assay: MTS cell proliferation assay, MDA-MB-361; type: cell-based; details: Homo sapiens, ER-positive breast cancer, 72 hrs, >10 = no effect, read-out: IC50 MDA-MB-361 (Table 1)
Method: as §1

SKBR3 = assay: MTS cell proliferation assay, SKBR3; type: cell-based; details: Homo sapiens, SK-BR-3; ER-negative breast cancer, 72 hrs; >10 = no effect; read-out: IC50 SKBR3 (Table 1)
Method: as §1

BxPc-3H = assay: MTS cell proliferation assay, BxPc-3H; type: cell-based; details: Homo sapiens; pancreatic cancer, 72 hrs; >10 = no effect; read-out: IC50 BxPc-3H (Table 1)
Method: as §1

[1] = MCF7, Example 4 numbering, 72 h, >10 = no effect, read-out: IC50 MCF-7 (Table 4)
[2] = Example 4 numbering, 72 h, >10 = no effect, read-out: IC50 AsPC1 (Table 4)
[3] = Example 4 numbering, 72 h, >10 = no effect, read-out: IC50 Panc-1 (Table 4)
[4] = Example 4 numbering, 72 h, read-out: IC50 MDA-MB-231 (Table 4)
[5] = MCF7, 72 h, read-out: IC50 MCF-7 (Table 1)
[6] = pancreatic cancer, 72 hrs, >10 = no effect, read-out: IC50 AsPC1 (Table 1)
[7] = pancreatic cancer, 72 hrs, >10 = no effect, read-out: IC50 Panc-1 (Table 1)
[8] = ER-negative breast cancer, 72 hrs, read-out: IC50 MDA-MB-231 (Table 1)
[9] = MCF7, Table 2 numbering 1-14, >10 = no effect, read-out: IC50 MCF-7 (Table 2)
[10] = Table 2 numbering 1-14, read-out: IC50 AsPC1 (Table 2)
[11] = Table 2 numbering 1-14, read-out: IC50 Panc-1 (Table 2)
[12] = Table 2 numbering 1-14, read-out: IC50 MDA-MB-231 (Table 2)

Row | Compound | IC50 (MCF-7; [5]) [µM] | IC50 (AsPC1; [6]) [µM] | IC50 (Panc-1; [7]) [µM] | IC50 (MDA-MB-231; [8]) [µM] | inhibition on breast cancer cell proliferation (FIG. 1) (MCF-7) | also measured
1 | O=C(Nc1ccc2c(c1)S(=O)(=O)C=C2)c1cc(Cl)ccc1O [Compd 12] |  |  |  |  |  | IC50 (MCF-7; [1]): 0.91 µM; IC50 (AsPC1; [2]): 1.92 µM; IC50 (Panc-1; [3]): 2.34 µM; IC50 (MDA-MB-231; [4]): 1.64 µM
2 | NCCCOc1ccc(Cl)cc1C(=O)Nc1ccc2c(c1)S(=O)(=O)C=C2 [HJC-4-16, 2-(3-Aminopropoxy)-5-chloro-N-(1,1-dioxo-1H-1λ^6-benzo[b]thiophen-6-yl)benzamide] | 1.76 | 0.27 | 1.88 | 1.97 | significant inhibition | 
3 | N#C/C(=C\c1cccc(Br)n1)C(=O)Nc1ccc2c(c1)S(=O)(=O)C=C2 [HJC-3-71, 3-(6-Bromo-pyridin-2-yl)-2-cyano-N-(1,1-dioxo-1H-1λ^6-benzo[b]thiophen-6-yl)-acrylamide] | 3.31 | 1.54 | 1.64 | 1.53 | significant inhibition | 
4 | N#C/C(=C\c1cccc(Br)n1)C(=O)Nc1ccc2c(c1)S(=O)(=O)C=C2 [Compound 10] |  |  |  |  |  | IC50 (MCF-7; [1]): 3.31 µM; IC50 (AsPC1; [2]): 1.54 µM; IC50 (Panc-1; [3]): 1.64 µM; IC50 (MDA-MB-231; [4]): 1.53 µM
5 | C[C@H](NC(=O)c1cc(Cl)ccc1O)c1ccccc1 [Compound 9] |  |  |  |  |  | IC50 (MCF-7; [1]): 0.9 µM; IC50 (MCF-7; MCF7, Example 4 numbering, read-out: IC50 MCF-7 (Example 4)): 0.9 µM; IC50 (AsPC1; [2]): 7.54 µM; IC50 (Panc-1; [3]): 8.44 µM; IC50 (MDA-MB-231; [4]): 8.88 µM
6 | O=C(Nc1ccc2c(c1)S(=O)(=O)C=C2)c1ccnc(-c2ccccc2)c1 [HJC-4-30, N-(1,1-Dioxo-1H-1λ^6-benzo[b]thiophen-6-yl)-2-phenyl-isonicotinamide] | 3.78 | 1.3 | 3.35 | 1.85 | significant inhibition | 
7 | NCCCCCOc1ccc(Cl)cc1C(=O)Nc1ccc([N+](=O)[O-])cc1Cl [HJC-3-89, 2-(5-Amino-pentyloxy)-5-chloro-N-(2-chloro-4-nitro-phenyl)benzamide] | 3.49 | 2.08 | 4.67 | 3.1 | significant inhibition | 
8 | NCCCOc1ccc(Cl)cc1C(=O)Nc1ccc([N+](=O)[O-])cc1Cl [HJC-3-8, 2-(3-Aminopropoxy)-5-chloro-N-(2-chloro-4-nitrophenyl)benzamide] | 3.11 | 4.2 | 3.11 | 2.61 | significant inhibition | 
9 | CNCCOc1ccc(Cl)cc1C(=O)Nc1ccc2c(c1)S(=O)(=O)C=C2 [HJC-4-28, 5-Chloro-N-(1,1-dioxo-1H-1λ^6-benzo[b]thiophen-6-yl)-2-(2-methylaminoethoxy)benzamide] | 3.15 | 2.05 | 3.09 | 3.12 | significant inhibition | 
10 | O=C(Nc1ccc2c(c1)S(=O)(=O)C=C2)c1cc(Cl)ccc1O [Compound 1] |  |  |  |  |  | IC50 (MCF-7; [9]): 0.91 µM; IC50 (AsPC1; [10]): 1.92 µM; IC50 (Panc-1; [11]): 2.34 µM; IC50 (MDA-MB-231; [12]): 1.64 µM
11 | C[C@H](NC(=O)c1cc(-c2ccccc2)nc2ccccc12)c1ccccc1 [Compound 8] |  |  |  |  |  | IC50 (MCF-7; [1]): 2.24 µM; IC50 (AsPC1; [2]): > 10 µM; IC50 (Panc-1; [3]): > 10 µM; IC50 (MDA-MB-231; [4]): 86 µM
12 | Cc1ccc(S(=O)(=O)Nc2ccc3c(c2)S(=O)(=O)C=C3)cc1 [HJC-3-70, N-(1,1-Dioxo-1H-1λ^6-benzo[b]thiophen-6-yl)-4-methylbenzenesulfonamide] | 3.24 | 1.92 | 2.89 | 2.66 |  | 
13 | O=C(Nc1ccc2c(c1)S(=O)(=O)C=C2)c1cc(Cl)ccc1OCCN1CCNCC1 [HJC-4-13, 5-Chloro-N-(1,1-dioxo-1H-1λ^6-benzo[b]thiophen-6-yl)-2-(2-piperazin-1-yl-ethoxy) benzamide] | 2.56 | 1.87 | 3.69 | 3.29 |  | 
14 | COC1CS(=O)(=O)c2cc(NC(=O)c3cc(Cl)ccc3O)ccc21 (stereo not drawn) [Compound 14] |  |  |  |  |  | IC50 (MCF-7; [9]): 6.07 µM; IC50 (AsPC1; [10]): 8.46 µM; IC50 (Panc-1; [11]): 8.39 µM; IC50 (MDA-MB-231; [12]): 7.05 µM

Continued, in another order:

Row | IC50 (MCF-7; [5]) [µM] | IC50 (AsPC1; [6]) [µM] | IC50 (Panc-1; [7]) [µM] | IC50 (MDA-MB-231; [8]) [µM] | Compound | inhibition on breast cancer cell proliferation (FIG. 1) (MCF-7) | also measured
15 | 0.9 | 7.54 | 8.44 | 8.88 | C[C@H](NC(=O)c1cc(Cl)ccc1O)c1ccccc1 [HJC-1-30, 5-Chloro-2-hydroxy-N-(1-phenyl-ethyl)benzamide] | significant inhibition | IC50 (MDA-MB-361): 6.39 µM; IC50 (SKBR3): 6.51 µM; IC50 (BxPc-3H): 7.26 µM
16 | 2.24 | > 10 | 15.4 | 86 | C[C@H](NC(=O)c1cc(-c2ccccc2)nc2ccccc12)c1ccccc1 [HJC-1-28, 2-Phenyl-quinoline-4-carboxylic acid (1-phenyl-ethyl)amide] |  | IC50 (MDA-MB-361): 132 µM; IC50 (SKBR3): 45.9 µM; IC50 (BxPc-3H): 16.4 µM
